Values of other authors, collected in patent US20050227989A1, “Polycyclic thiazoles as potassium ion channel modulators” (ICAgen, Inc., priority 2004, published 2005).

Legend:
SK2 subtype channels = SK2 subtype channels (Rattus norvegicus, UniProt P70604); conditions: patch clamp; cited from earlier work
[1] = biological target: T1, recombinant human SK4 (hIK1 or hKCa4) channels (Homo sapiens, UniProt O15554+P0DP23); conditions: applied to the inside of SK4 channel-expressing membrane patches; cited from earlier work
T1 construct: host or cells: HEK 293

## CN(C)CCC=C1c2ccccc2CCc2ccccc21 [amitriptyline]
SK2 subtype channels
  block of SK2 channel currents: block SK2 channel currents with micromolar affinity

## NC(=O)N1c2ccccc2C=Cc2ccccc21 [carbamazepine]
SK2 subtype channels
  block of SK2 channel currents: block SK2 channel currents with micromolar affinity

## CN(C)CCCN1c2ccccc2Sc2ccc(Cl)cc21 [chlorpromazine]
SK2 subtype channels
  block of SK2 channel currents: block SK2 channel currents with micromolar affinity

## [Fe] [iron]
[1]
  activation of SK4 channels: did not activate

## [Pb+2] [lead]
[1]
  activation of SK4 channels: activated SK4 channels in a concentration-dependent manner

## [Mg+2] [magnesium]
[1]
  activation of SK4 channels: did not activate

## [Sr+2] [strontium]
[1]
  activation of SK4 channels: activated SK4 channels in a concentration-dependent manner

## Nc1c2c(nc3ccccc13)CCCC2 [tacrine]
SK2 subtype channels
  block of SK2 channel currents: block SK2 channel currents with micromolar affinity

## [Zn+2] [zinc]
[1]
  activation of SK4 channels: did not activate
